# Experimental data published in patent publication US20030133923A1, “Composition for preventing the formation and enhancing the breakdown of bezoars in animals and humans” (priority 2001, published 2003).
# Assay: In vitro breakdown of a feline hairball under simulated stomach conditions (pH 3.0, 100° F., 24 hours)
# Conditions: for % enhanced break down: versus 0% Tween-80; for Hair clump wt: hairball 1.0-1.1 g
# Protocol: Tween 80 (lot#1373A, Uniqema, Wilmington, Del.) was dissolved in 150 ml acidified water (pH 3.0) at a concentration of 0%, 5%, 10%, 15%, and 20%. A feline hairball (1.0-1.1 g) was then added to each of the five solutions. The mixtures were incubated at 100° F. for 24 hours. After incubation, hair lumps (defined as hair not floating free in the liquid) was removed and the liquid was strained through cheesecloth. Free hair and hair lumps were then dried and weighed.
structure (smiles),measurement,setting,value
CCCCCCCC/C=C\CCCCCCCC(=O)OCCOCC(OCCO)C1OCC(OCCO)C1OCCO (centres unmarked) [Tween-80],Free hair wt,"5% Tween-80, pH 3.0, 100° F.",0.1606 g
same,Free hair wt (% total wt),"5% Tween-80, pH 3.0, 100° F.",20.38%
same,Hair clump wt (% total wt),"5% Tween-80, pH 3.0, 100° F.",79.62%
same,% enhanced break down,"5% Tween-80, pH 3.0, 100° F.",5%
same,Hair clump wt,"5% Tween-80 in 150 ml acidified water pH 3.0, 100° F.",0.6273 g
same,Free hair wt,"10% Tween-80, pH 3.0, 100° F.",0.2576 g
same,Free hair wt (% total wt),"10% Tween-80, pH 3.0, 100° F.",53.78%
same,Hair clump wt (% total wt),"10% Tween-80, pH 3.0, 100° F.",46.22%
same,% enhanced break down,"10% Tween-80, pH 3.0, 100° F.",35%
same,Hair clump wt,"10% Tween-80 in 150 ml acidified water pH 3.0, 100° F.",0.2214 g
same,Free hair wt,"15% Tween-80, pH 3.0, 100° F.",0.1980 g
same,Free hair wt (% total wt),"15% Tween-80, pH 3.0, 100° F.",47.86%
same,Hair clump wt (% total wt),"15% Tween-80, pH 3.0, 100° F.",52.14%
same,% enhanced break down,"15% Tween-80, pH 3.0, 100° F.",35%
same,Hair clump wt,"15% Tween-80 in 150 ml acidified water pH 3.0, 100° F.",0.2157 g
same,Free hair wt,"20% Tween-80, pH 3.0, 100° F.",0.2480 g
same,Free hair wt (% total wt),"20% Tween-80, pH 3.0, 100° F.",51.99%
same,Hair clump wt (% total wt),"20% Tween-80, pH 3.0, 100° F.",48.00%
same,% enhanced break down,"20% Tween-80, pH 3.0, 100° F.",35%
same,Hair clump wt,"20% Tween-80 in 150 ml acidified water pH 3.0, 100° F.",0.2290 g
